Results taken from patent publication US20200197544A1, “JCV IMAGING METHODS AND COMPOSITIONS” (BIOGEN MA Inc., priority 2017, published 2020).
“Also recorded” adds a separate entry of the source.

Tested on: JCV-infected human astrocytes
Test: ^3H-FLT uptake in uninfected and JCV-infected human astrocytes (TK1 activity)
Type: cell-based
Details: JCV-infected astrocytes compared to uninfected astrocytes; uptake as a measure of TK1 activity
Experimental: The activity of TK1 in uninfected and JCV-infected human astrocytes was determined by analyzing the cellular uptake of ^3H-FLT, a radiolabeled TK1 substrate.

Cc1cn([C@H]2C[C@H](F)[C@@H](CO)O2)c(=O)[nH]c1=O [^3H-FLT]
^3H-FLT uptake: higher in JCV-infected astrocytes as compared to uninfected astrocytes; also recorded: elevated levels of TK1 activity, as determined by uptake of ^3H-FLT, compared to uninfected cells
